Results taken from US4255183A, “Substituted phenyl urea and herbicides for use in paddy field” (Hokko Chemical Industry Co., Ltd., priority 1977, dated 1981).
Where two headings read alike, the source gives them in different places.

What was measured:
paddy rice [1] = test: Test Example 3: field test in transplanted paddy field, paddy rice; format: in vivo, paddy rice (Asahi species); details: Oryza sativa; 300 g/10 are, granule, applied 25 days after transplantation, examined 60 days after transplantation
Experimental: (§1) In a Wagner pot of 1/500 are, paddy field soil (alluvial soil) was placed and 50 seeds of Echinochloa crus-galli var. oryzicola and 30 seeds of paddy rice were seeded in the surface layer of said soil and the submerging depth was kept at about 1 cm. When Echinochloa crus-galli var. oryzicola reached at the one leaf stage and 5-leaf stage, the emulsion of a predetermined concentration, prepared according to Example 4 was added dropwise. After 30 days from the treatment with the chemical, dry weights of Echinochloa crus-galli var. oryzicola and paddy rice were measured and the inhibition rate was calculated with reference to untreated area. [formula]
(§2) In a 10 m^2 paddy field, young seedlings of paddy rice (Asahi species) at the 2,5-leaf stage were transplanted 30 days after the puddling the submerging at the depth of 3-5 cm. 25 Days after the transplantation, when Echinochloa crus-galli var. oryzicola reached 4-leaf stage, a predetermined dose of the granule prepared according to Example 1 was applied. Test results were examined 60 days after the transplantation of paddy rice in the similar manner as in Test Example 1.
(§3) Comparative chemicals used were all those commercially available and in the case of the comparative chemical 2, CNP was applied 3 days after the transplantation of paddy rice and after 25 days a mixture of Benthiocarb and Simetryne was applied.

[2] = system: Echinochloa crus-galli var. oryzicola; test: Test Example 1: pot test on selectivity, inhibition of Echinochloa crus-galli var. oryzicola; format: in vivo; details: for inhibition at 750 g/ha / inhibition at 1500 g/ha / inhibition at 3000 g/ha / inhibition at 6000 g/ha / inhibition at 9000 g/ha: Echinochloa crus-galli, 720 h, dry weight 30 days after treatment; for inhibition at 750 g/ha: 75 g/10 are; for inhibition at 1500 g/ha: 150 g/10 are; for inhibition at 3000 g/ha: 300 g/10 are; for inhibition at 6000 g/ha: 600 g/10 are; for inhibition at 9000 g/ha: 900 g/10 are; for activity for killing Echinochloa spp.: trans-form, cis-form and mixtures compared
Procedure, shortened: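 Paddy soil pots were sown with 50 barnyard grass and 30 rice seeds under about 1 cm flooding, and emulsion at set concentrations was dripped in at the weed's 1-leaf and 5-leaf stages. After 30 days, dry weights of weed and rice gave inhibition versus untreated.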

[3] = system: Echinochloa crus-galli var. oryzicola; test: Test Example 2: concrete pot test on killing effect, Echinochloa crus-galli var. oryzicola; format: in vivo; details: Echinochloa crus-galli, 720 h, granule, 30 days after treatment; for inhibition at 1000 g/ha: 100 g/10 are; for inhibition at 3000 g/ha: 300 g/10 are; for inhibition at 9000 g/ha: 900 g/10 are
Procedure, shortened: (§4)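 Barnyardgrass seeded in flooded alluvial paddy soil (~3 cm water) in concrete pots, with 2.5-leaf Asahi rice transplanted before weed emergence. Granules applied at weed 1-leaf or 5-leaf stage. Dry weights measured 30 days after treatment; inhibition rate calculated versus untreated area.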

Acute oral toxicity = details: in vivo, SD-strain rat
Experimental: (§5) Acute oral toxicity LD50 value of the compound of the invention measured on SD-strain rat is more than 2,000 mg/Kg for any of the trans-form, cis-form and a mixture thereof in equal amount and further acute fish toxicity TLm value (as defined by Official Standard issued from Ministry of Agriculture & Forestry) measured on young carp is more than 20 ppm for any of the above compounds.

[4] = system: Echinochloa crus-galli var. oryzicola; test: Test Example 3: field test in transplanted paddy field, Echinochloa crus-galli var. oryzicola; format: in vivo; details: Echinochloa crus-galli, 1440 h; 300 g/10 are, granule, applied at 4-leaf stage, examined 60 days after transplantation; read-out: Inhibition (%) of E. crus-galli var. oryzicola
Experimental: as §1, §2, §3

paddy rice [5] = test: whole plant or invertebrate; format: in vivo, paddy rice (Asahi species); details: Oryza sativa, 720 h, granule, 30 days; for inhibition at 1000 g/ha: 100 g/10 are; for inhibition at 3000 g/ha: 300 g/10 are; for inhibition at 9000 g/ha: 900 g/10 are
Procedure, shortened: as §4

Acute fish toxicity = details: in vivo; young carp, Official Standard of Ministry of Agriculture & Forestry; read-out: acute fish toxicity TLm
Experimental: as §5

paddy rice [6] = test: Test Example 1: pot test on selectivity, inhibition of paddy rice; format: in vivo; details: for inhibition at 750 g/ha / inhibition at 1500 g/ha / inhibition at 3000 g/ha / inhibition at 6000 g/ha / inhibition at 9000 g/ha: Oryza sativa, 720 h, dry weight 30 days after treatment; for inhibition at 750 g/ha: 75 g/10 are; for inhibition at 1500 g/ha: 150 g/10 are; for inhibition at 3000 g/ha: 300 g/10 are; for inhibition at 6000 g/ha: 600 g/10 are; for inhibition at 9000 g/ha: 900 g/10 are; for selectivity to paddy rice: trans-form, cis-form and mixtures compared
Procedure, shortened: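 Alluvial paddy soil in pots sown with Echinochloa crus-galli var. oryzicola (50 seeds) and paddy rice (30 seeds), submerged about 1 cm. Dry weights taken 30 days after chemical treatment; inhibition rate calculated relative to untreated area.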

paddy rice [7] = test: Test Example 4: field test in submerged directly seeded paddy field, paddy rice; format: in vivo, paddy rice (Asahi species); details: Oryza sativa, 504 h; 300 g/10 are, emulsion, 2- to 3-leaf stage, 21 days after application
Procedure, shortened: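 Field plot of 10 m² with Echinochloa seeds sown at puddling and water kept 3–5 cm deep; emerged paddy rice (Asahi) was seeded 3 days later. The emulsion was sprayed uniformly when both species reached the 2–3-leaf stage, and results were assessed 21 days after application.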

[8] = 1-leaf stage, read-out: Inhibition (%) by treatment at 1-leaf stage, E. crus-galli var. oryzicola
[9] = 5-leaf stage, read-out: Inhibition (%) by treatment at 5-leaf stage, E. crus-galli var. oryzicola
[10] = read-out: Inhibition (%) by treatment at 1-leaf stage of E. crus-galli var. oryzicola, E. crus-galli var. oryzicola
[11] = read-out: Inhibition (%) by treatment at 5-leaf stage of E. crus-galli var. oryzicola, E. crus-galli var. oryzicola
[12] = rice at 3.5 leaves stage, read-out: Inhibition (%) by treatment at 1-leaf stage of E. crus-galli var. oryzicola, paddy rice
[13] = rice at 7 leaves stage, read-out: Inhibition (%) by treatment at 5-leaf stage of E. crus-galli var. oryzicola, paddy rice
[14] = 1-leaf stage, read-out: Inhibition (%) by treatment at 1-leaf stage, paddy rice
[15] = 5-leaf stage, read-out: Inhibition (%) by treatment at 5-leaf stage, paddy rice

| Structure (SMILES) | inhibition at 3000 g/ha (paddy rice [1]) [%] | inhibition at 750 g/ha [2, 8] [%] | inhibition at 750 g/ha [2, 9] [%] | inhibition at 1500 g/ha [2, 8] [%] | inhibition at 1500 g/ha [2, 9] [%] | inhibition at 3000 g/ha [2, 8] [%] | inhibition at 3000 g/ha [2, 9] [%] | inhibition at 6000 g/ha [2, 8] [%] | inhibition at 6000 g/ha [2, 9] [%] | inhibition at 9000 g/ha [2, 8] [%] | inhibition at 9000 g/ha [2, 9] [%] | activity for killing Echinochloa spp. [2] | inhibition at 1000 g/ha [3, 10] [%] | inhibition at 1000 g/ha [3, 11] [%] | inhibition at 3000 g/ha [3, 10] [%] | inhibition at 3000 g/ha [3, 11] [%] | inhibition at 9000 g/ha [3, 10] [%] | inhibition at 9000 g/ha [3, 11] [%] | LD50 (Acute oral toxicity) [mg/kg] | inhibition at 3000 g/ha [4] [%] | further results |
| --- | --- | --- | --- | --- | --- | --- | --- | --- | --- | --- | --- | --- | --- | --- | --- | --- | --- | --- | --- | --- | --- |
| C/C=C\COc1ccc(NC(=O)N(C)C)cc1 [cis-form, 3-(4-cis-crotyloxyphenyl)-1,1-dimethyl urea] | 0 | 95 | 82 | 100 | 100 | 100 | 100 | 100 | 100 | 100 | 100 | equivalent | 100 | 100 | 100 | 100 | 100 | 100 | > 2000 | 100 | inhibition at 1000 g/ha (paddy rice [5]; [12]): 0%; inhibition at 1000 g/ha (paddy rice [5]; [13]): 0%; inhibition at 3000 g/ha (paddy rice [5]; [12]): 0%; inhibition at 3000 g/ha (paddy rice [5]; [13]): 0%; inhibition at 9000 g/ha (paddy rice [5]; [12]): 0%; inhibition at 9000 g/ha (paddy rice [5]; [13]): 0%; LC50 (Acute fish toxicity): > 20 µg/mL; inhibition at 750 g/ha (paddy rice [6]; [14]): 0%; inhibition at 750 g/ha (paddy rice [6]; [15]): 0%; inhibition at 1500 g/ha (paddy rice [6]; [14]): 0%; inhibition at 1500 g/ha (paddy rice [6]; [15]): 0%; inhibition at 3000 g/ha (paddy rice [6]; [14]): 0%; inhibition at 3000 g/ha (paddy rice [6]; [15]): 0%; inhibition at 6000 g/ha (paddy rice [6]; [14]): 0%; inhibition at 6000 g/ha (paddy rice [6]; [15]): 0%; inhibition at 9000 g/ha (paddy rice [6]; [14]): 3%; inhibition at 9000 g/ha (paddy rice [6]; [15]): 0%; selectivity to paddy rice (paddy rice [6]): equivalent; inhibition at 3000 g/ha (paddy rice [7]): 0% |
| C/C=C/COc1ccc(NC(=O)N(C)C)cc1 [trans-form, 3-(4-trans-crotyloxyphenyl)-1,1-dimethyl urea] | 0 | 96 | 86 | 100 | 100 | 100 | 100 | 100 | 100 | 100 | 100 | equivalent | 100 | 100 | 100 | 100 | 100 | 100 | > 2000 | 100 | inhibition at 1000 g/ha (paddy rice [5]; [12]): 0%; inhibition at 1000 g/ha (paddy rice [5]; [13]): 0%; inhibition at 3000 g/ha (paddy rice [5]; [12]): 0%; inhibition at 3000 g/ha (paddy rice [5]; [13]): 0%; inhibition at 9000 g/ha (paddy rice [5]; [12]): 0%; inhibition at 9000 g/ha (paddy rice [5]; [13]): 0%; LC50 (Acute fish toxicity): > 20 µg/mL; inhibition at 750 g/ha (paddy rice [6]; [14]): 0%; inhibition at 750 g/ha (paddy rice [6]; [15]): 0%; inhibition at 1500 g/ha (paddy rice [6]; [14]): 0%; inhibition at 1500 g/ha (paddy rice [6]; [15]): 0%; inhibition at 3000 g/ha (paddy rice [6]; [14]): 0%; inhibition at 3000 g/ha (paddy rice [6]; [15]): 0%; inhibition at 6000 g/ha (paddy rice [6]; [14]): 0%; inhibition at 6000 g/ha (paddy rice [6]; [15]): 0%; inhibition at 9000 g/ha (paddy rice [6]; [14]): 2%; inhibition at 9000 g/ha (paddy rice [6]; [15]): 0%; selectivity to paddy rice (paddy rice [6]): equivalent; inhibition at 3000 g/ha (paddy rice [7]): 0% |
